Measurements from ChEMBL document CHEMBL1201862, “PubChem BioAssay data set” (2004).
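Interpolation was linear, between the two tested concentrations surrounding the appropriate level; five concentrations were tested over 48 hours in 96-well plates. Abbreviation: GI50, concentration required for 50% inhibition of growth.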 Calls of active or inactive are those of the source. Cut-off read from the data, not from the text of the source: active = GI50 up to about 1.1 µM and inactive = higher.

How the values were obtained:
Assay in all cases: growth of human tumour cells (NCI), 48 h
CCRF-CEM = tested on: CCRF-CEM
UACC-62 = tested on: UACC-62
OVCAR-5 = tested on: OVCAR-5
HCT-116 = tested on: HCT-116
SF-539 = tested on: SF-539
DMS-273 = tested on: DMS-273
KM12 = tested on: KM12
OVCAR-4 = tested on: OVCAR-4
A498 = tested on: A498
HOP-62 = tested on: HOP-62
HT-29 = tested on: HT-29
M19-MEL = tested on: M19-MEL
MOLT-4 = tested on: MOLT-4
UO-31 = tested on: UO-31
DLD-1 = tested on: DLD-1
TK-10 = tested on: TK-10
SNB-78 = tested on: SNB-78
KM-20L2 = tested on: KM-20L2
SK-MEL-2 = tested on: SK-MEL-2
HCC 2998 = tested on: HCC 2998
U-251 = tested on: U-251
LXFL 529 = tested on: LXFL 529
IGROV-1 = tested on: IGROV-1
NCI-H522 = tested on: NCI-H522
SF-295 = tested on: SF-295
NCI-H460 = tested on: NCI-H460
HOP-92 = tested on: HOP-92
SN12C = tested on: SN12C
A549 = tested on: A549
EKVX = tested on: EKVX
DMS-114 = tested on: DMS-114
SK-MEL-28 = tested on: SK-MEL-28
UACC-257 = tested on: UACC-257
COLO 205 = tested on: COLO 205
SNB-19 = tested on: SNB-19
XF498 = tested on: XF498
SK-OV-3 = tested on: SK-OV-3
ACHN = tested on: ACHN
SW-620 = tested on: SW-620
SF-268 = tested on: SF-268
K562 = tested on: K562
SK-MEL-5 = tested on: SK-MEL-5
OVCAR-8 = tested on: OVCAR-8
HCT-15 = tested on: HCT-15
HL-60 = tested on: HL-60
SNB-75 = tested on: SNB-75
NCI-H23 = tested on: NCI-H23
CAKI-1 = tested on: CAKI-1
RPMI-8226 = tested on: RPMI-8226
LOX IMVI = tested on: LOX IMVI
M14 = tested on: M14
NCI-H226 = tested on: NCI-H226
SR = tested on: SR

Q: Which results are given for `Cc1cccc(NC(=O)C(=O)C(C(=O)c2ccccc2F)C2OC(=O)c3ccccc32)c1Cl` (stereo not drawn)?
A: GI50 (CCRF-CEM): 23.3 µM (inactive); GI50 (UACC-62): 23.2 µM (inactive); GI50 (OVCAR-5): 60 µM (inactive); GI50 (HCT-116): 20.3 µM (inactive); GI50 (SF-539): 18.2 µM (inactive); GI50 (DMS-273): 24.7 µM (inactive); GI50 (KM12): 25 µM (inactive); GI50 (OVCAR-4): 43.9 µM (inactive); GI50 (A498): 60.7 µM (inactive); GI50 (HOP-62): 37.4 µM (inactive); GI50 (HT-29): 31.5 µM (inactive); GI50 (M19-MEL): 22.4 µM (inactive); GI50 (MOLT-4): 30.3 µM (inactive); GI50 (UO-31): 37.2 µM (inactive); GI50 (DLD-1): 27.9 µM (inactive); GI50 (TK-10): 63 µM (inactive); GI50 (SNB-78): 32.6 µM (inactive); GI50 (KM-20L2): 29.6 µM (inactive); GI50 (SK-MEL-2): 16.8 µM (inactive); GI50 (HCC 2998): 22.5 µM (inactive); GI50 (U-251): 14.5 µM (inactive); GI50 (LXFL 529): 24.3 µM (inactive); GI50 (IGROV-1): 56.8 µM (inactive); GI50 (NCI-H522): 22.4 µM (inactive); GI50 (SF-295): 36.4 µM (inactive); GI50 (NCI-H460): 33.7 µM (inactive); GI50 (HOP-92): 52.7 µM (inactive); GI50 (SN12C): 36.7 µM (inactive); GI50 (A549): 36.4 µM (inactive); GI50 (EKVX): 37.9 µM (inactive); GI50 (DMS-114): 17.5 µM (inactive); GI50 (SK-MEL-28): 35.1 µM (inactive); GI50 (UACC-257): 51.4 µM (inactive); GI50 (COLO 205): 20 µM (inactive); GI50 (SNB-19): 31.1 µM (inactive); GI50 (XF498): 19.7 µM (inactive); GI50 (SK-OV-3): 37.2 µM (inactive); GI50 (ACHN): 53.1 µM (inactive); GI50 (SW-620): 42.5 µM (inactive); GI50 (SF-268): 21.4 µM (inactive); GI50 (K562): 28.6 µM (inactive); GI50 (SK-MEL-5): 64 µM (inactive); GI50 (OVCAR-8): 20.1 µM (inactive); GI50 (HCT-15): 22.4 µM; GI50 (HL-60): 20.1 µM (inactive); GI50 (SNB-75): 20.5 µM (inactive); GI50 (NCI-H23): 24.2 µM (inactive); GI50 (CAKI-1): 61.4 µM (inactive); GI50 (RPMI-8226): 26.9 µM (inactive); GI50 (LOX IMVI): 17.7 µM (inactive); GI50 (M14): 43.1 µM (inactive); GI50 (NCI-H226): 32.4 µM (inactive); GI50 (SR): 26.5 µM (inactive)
